The values that follow come from PubChem BioAssay (NCI).

SMILES strings stand for the structures.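 Five compound concentrations were applied to cells in 96-well plates for 48 hours; endpoints were derived by simple linear interpolation of the resulting dose-response curve. GI50 is the concentration that inhibits growth by half. At the TGI there is no net growth.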

Among the test systems are DU-145 prostate; HL-60(TB) leukemia; HT29 colon; MCF7 breast; MDA-MB-231 breast; MOLT-4 leukemia; NCI/ADR-RES ovarian; SF-295 CNS; SN12C renal; SW-620 colon; UO-31 renal.
Common to all, as to experiment: DTP human tumour cell line panel, 48 h

Consider `COc1ccc(CCN=C2OCc3ccccc32)cc1OC`, for which the concentration for total growth inhibition (TGI) with DU-145 prostate was above 100 µM; with HL-60(TB) leukemia, 32.6 µM; in the assay with HT29 colon, above 100 µM; in the assay on MCF7 breast it was 90.4 µM; in the assay with MDA-MB-231 breast, above 100 µM; with MOLT-4 leukemia, above 100 µM. Besides, the TGI with NCI/ADR-RES ovarian, with SF-295 CNS, with SN12C renal, in the assay with SW-620 colon and in the assay on UO-31 renal was above 100 µM throughout.
Take `Cc1c(O)c(C)c2c(C)cn(C(=O)C(C)(C)C)c2c1C`: the TGI in the assay on DU-145 prostate was 43.9 µM; in the assay on HL-60(TB) leukemia it was above 100 µM; with HT29 colon, 42.6 µM; in the assay with MCF7 breast, 20.3 µM; in the assay on MDA-MB-231 breast it was 28.5 µM; in the assay with MOLT-4 leukemia it was 55.2 µM. Besides, the TGI in the assay on NCI/ADR-RES ovarian was above 100 µM; in the assay on SF-295 CNS it was 32.9 µM; in the assay with SN12C renal, 31.8 µM; in the assay with SW-620 colon, 74.4 µM; with UO-31 renal, 79.6 µM.
In the case of `CCOC(=O)c1cc(C2(O)CCN(CC(C)CC)C2=O)c(-c2cc(C)no2)[nH]1` (stereo not drawn), the TGI in the assay on DU-145 prostate, in the assay on HL-60(TB) leukemia, with HT29 colon, in the assay with MCF7 breast, in the assay with MDA-MB-231 breast and in the assay with MOLT-4 leukemia was above 100 µM in each case. For the same compound, the TGI with NCI/ADR-RES ovarian, with SF-295 CNS, in the assay with SN12C renal, in the assay with SW-620 colon and in the assay with UO-31 renal was above 100 µM each time.
For `COC(=O)C1(OC(=O)Sc2ccccc2)CCN(C)CC1`, the TGI was above 100 µM in the assay with DU-145 prostate; 24 µM with HL-60(TB) leukemia; 58 µM with HT29 colon; above 100 µM in the assay with MCF7 breast; 59 µM in the assay on MDA-MB-231 breast; above 39.8 µM in the assay with MOLT-4 leukemia. Besides, the total growth inhibition concentration (TGI) with NCI/ADR-RES ovarian was above 48.4 µM; with SF-295 CNS, above 59.5 µM; in the assay with SN12C renal, 21.3 µM; in the assay on SW-620 colon it was 54.9 µM; in the assay on UO-31 renal, 20.8 µM.
Regarding `O=C(c1cc(Cl)cc(Cl)c1)N1CCN(C(=O)c2cc(Cl)cc(Cl)c2)C1=S`, the total growth inhibition concentration (TGI) in the assay on DU-145 prostate was 21.5 µM; in the assay with HL-60(TB) leukemia it was 6.28 µM; with HT29 colon, 51.9 µM; with MCF7 breast it was 12.5 µM; in the assay on MDA-MB-231 breast, 31.9 µM; with MOLT-4 leukemia it was 19.6 µM. Besides, the TGI in the assay with NCI/ADR-RES ovarian is above 100 µM; in the assay with SF-295 CNS it was 44.7 µM; in the assay with SN12C renal, 31.1 µM; in the assay with SW-620 colon, above 50.5 µM; in the assay with UO-31 renal, 6.08 µM. In the assay with NCI/ADR-RES ovarian, the GI50 was 31.7 µM.
Take `Cc1ccc(-c2cc(-c3ccc(Cl)cc3)nc(/N=C3\C(=O)N(CN4CCOCC4)c4ccc(Cl)cc43)n2)cc1`: the TGI with DU-145 prostate was 47.7 µM; with HL-60(TB) leukemia, 41.4 µM; in the assay on HT29 colon it was 43.6 µM; in the assay on MCF7 breast, 79.2 µM; with MDA-MB-231 breast it was above 100 µM; in the assay on MOLT-4 leukemia, 57 µM. For the same compound, the TGI with NCI/ADR-RES ovarian was 61.3 µM; with SF-295 CNS, above 100 µM; with SN12C renal, 59.1 µM; with SW-620 colon, above 100 µM; in the assay with UO-31 renal it was 60.3 µM.
Consider `Cn1c(N)c2c3c(sc2nc1=O)CCCC3`, for which the TGI in the assay with DU-145 prostate, in the assay on HL-60(TB) leukemia, in the assay with HT29 colon, with MCF7 breast, with MDA-MB-231 breast and in the assay with MOLT-4 leukemia was above 75 µM each time. Also, the total growth inhibition concentration (TGI) with NCI/ADR-RES ovarian, in the assay on SF-295 CNS, in the assay with SN12C renal, in the assay on SW-620 colon and in the assay with UO-31 renal was above 75 µM each time.
Consider `Cc1cc(C)nc(NS(=O)(=O)c2ccc(NNC(=O)c3cccc4c(=O)c5ccccc5[nH]c34)cc2)n1`, for which the TGI with DU-145 prostate, in the assay with HL-60(TB) leukemia, in the assay with HT29 colon, in the assay on MCF7 breast, in the assay on MDA-MB-231 breast and in the assay with MOLT-4 leukemia was above 100 µM each time. The TGI with NCI/ADR-RES ovarian, in the assay on SF-295 CNS, with SN12C renal, with SW-620 colon and with UO-31 renal was above 100 µM throughout.
In the case of `COc1ccc(OC)c(N2C(=O)CSC2c2cc(OC)c(OC)c(OC)c2)c1` (stereo not drawn), the TGI in the assay with DU-145 prostate, with HL-60(TB) leukemia, with HT29 colon, in the assay on MCF7 breast, in the assay with MDA-MB-231 breast and in the assay with MOLT-4 leukemia was above 100 µM in each case. Besides, the TGI in the assay with NCI/ADR-RES ovarian, with SF-295 CNS, in the assay on SN12C renal, in the assay with SW-620 colon and with UO-31 renal was above 100 µM in each case.
Turning to `CC(C)C1=C(Cc2ccccc2)C(=O)O/C1=C\c1cc(Cl)c(O)c(Cl)c1`, the TGI in the assay on DU-145 prostate worked out at 30.3 µM; in the assay on HL-60(TB) leukemia, 41.7 µM; with HT29 colon it was 32.2 µM; in the assay with MCF7 breast, 83.4 µM; in the assay with MDA-MB-231 breast, 33.8 µM; in the assay with MOLT-4 leukemia, 60.7 µM. Besides, the TGI stood at 52.3 µM in the assay with NCI/ADR-RES ovarian; 30.8 µM in the assay with SF-295 CNS; 35.6 µM in the assay with SN12C renal; 44.6 µM with SW-620 colon; 27.1 µM with UO-31 renal.
Take `CC(C)=C1C(=O)C[C@]2(C)C[C@H]3/C(=C(/C)CCC12)CC[C@@]3(C)O` (stereo partly drawn): the TGI is above 50 µM in the assay on DU-145 prostate; 28.6 µM in the assay on HL-60(TB) leukemia; above 50 µM with HT29 colon; above 50 µM in the assay on MCF7 breast; above 50 µM in the assay with MDA-MB-231 breast; above 50 µM in the assay with MOLT-4 leukemia. Besides, the TGI in the assay on NCI/ADR-RES ovarian, in the assay on SF-295 CNS, with SN12C renal, in the assay on SW-620 colon and in the assay on UO-31 renal was above 50 µM in each case.
Turning to `O=C1NN=C2C=C(c3ccc(Cl)cc3)CC(c3cccc(Cl)c3)C12` (stereo not drawn), the TGI in the assay on DU-145 prostate was above 100 µM; in the assay with HL-60(TB) leukemia it was 49.1 µM; with HT29 colon, 51.4 µM; in the assay on MCF7 breast, 48.5 µM; with MDA-MB-231 breast, 42.7 µM; with MOLT-4 leukemia, 52.9 µM. The TGI in the assay on NCI/ADR-RES ovarian is above 100 µM; in the assay on SF-295 CNS, 38.4 µM; in the assay on SN12C renal it was 57.5 µM; in the assay with SW-620 colon, above 100 µM; in the assay with UO-31 renal it was 66.4 µM.
